# Measurements: ChEMBL document CHEMBL1140269, “Amino-substituted heterocycles as isosteres of trans-cinnamides: design and synthesis of heterocyclic biaryl sulfides as potent antagonists of LFA-1/ICAM-1 binding” (Bioorg Med Chem Lett, 2005)
# Where “and” joins values, the source holds several entries; their conditions need not be identical. Equal entries are not always repeated.
# Molecular target: Intercellular adhesion molecule (ICAM-1), Integrin alpha-L/beta-2 (Homo sapiens, UniProt P05107+P20701)
# Assay: Inhibitory concentration against integrin LFA-1/ICAM-1 binding complex
# Assay type: protein-complex assay
# Sequence of Intercellular adhesion molecule (ICAM-1), Integrin alpha-L/beta-2 (P20701 whole entry): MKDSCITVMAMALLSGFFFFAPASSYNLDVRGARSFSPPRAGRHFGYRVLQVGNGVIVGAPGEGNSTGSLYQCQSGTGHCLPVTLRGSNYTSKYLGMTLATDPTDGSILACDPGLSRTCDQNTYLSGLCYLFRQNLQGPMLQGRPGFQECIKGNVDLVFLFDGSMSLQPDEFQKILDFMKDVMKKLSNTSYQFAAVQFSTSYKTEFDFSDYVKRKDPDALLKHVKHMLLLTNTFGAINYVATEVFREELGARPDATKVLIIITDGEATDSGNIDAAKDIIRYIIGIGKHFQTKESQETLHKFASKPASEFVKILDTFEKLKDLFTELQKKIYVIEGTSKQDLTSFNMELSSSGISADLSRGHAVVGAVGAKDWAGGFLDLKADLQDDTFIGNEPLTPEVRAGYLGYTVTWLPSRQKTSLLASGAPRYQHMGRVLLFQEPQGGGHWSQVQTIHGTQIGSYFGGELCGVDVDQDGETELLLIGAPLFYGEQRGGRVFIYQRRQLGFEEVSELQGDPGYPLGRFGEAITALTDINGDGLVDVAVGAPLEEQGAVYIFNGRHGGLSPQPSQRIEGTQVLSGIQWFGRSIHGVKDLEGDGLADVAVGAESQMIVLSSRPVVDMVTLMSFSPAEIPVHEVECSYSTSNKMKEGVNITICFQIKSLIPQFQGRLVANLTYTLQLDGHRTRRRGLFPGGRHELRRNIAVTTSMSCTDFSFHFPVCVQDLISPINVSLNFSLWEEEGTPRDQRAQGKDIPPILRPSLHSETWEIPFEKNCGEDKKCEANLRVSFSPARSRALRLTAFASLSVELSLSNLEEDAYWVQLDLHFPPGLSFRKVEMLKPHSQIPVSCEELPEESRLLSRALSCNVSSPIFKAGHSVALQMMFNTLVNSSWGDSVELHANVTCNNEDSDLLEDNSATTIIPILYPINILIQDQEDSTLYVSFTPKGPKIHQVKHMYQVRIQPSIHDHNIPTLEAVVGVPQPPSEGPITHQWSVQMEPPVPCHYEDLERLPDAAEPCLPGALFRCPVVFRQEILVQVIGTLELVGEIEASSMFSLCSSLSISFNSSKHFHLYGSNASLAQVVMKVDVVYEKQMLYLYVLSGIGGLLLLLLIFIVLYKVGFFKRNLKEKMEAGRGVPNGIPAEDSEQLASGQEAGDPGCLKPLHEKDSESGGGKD
# Sequence of Intercellular adhesion molecule (ICAM-1), Integrin alpha-L/beta-2 (P05362 whole entry, further chain): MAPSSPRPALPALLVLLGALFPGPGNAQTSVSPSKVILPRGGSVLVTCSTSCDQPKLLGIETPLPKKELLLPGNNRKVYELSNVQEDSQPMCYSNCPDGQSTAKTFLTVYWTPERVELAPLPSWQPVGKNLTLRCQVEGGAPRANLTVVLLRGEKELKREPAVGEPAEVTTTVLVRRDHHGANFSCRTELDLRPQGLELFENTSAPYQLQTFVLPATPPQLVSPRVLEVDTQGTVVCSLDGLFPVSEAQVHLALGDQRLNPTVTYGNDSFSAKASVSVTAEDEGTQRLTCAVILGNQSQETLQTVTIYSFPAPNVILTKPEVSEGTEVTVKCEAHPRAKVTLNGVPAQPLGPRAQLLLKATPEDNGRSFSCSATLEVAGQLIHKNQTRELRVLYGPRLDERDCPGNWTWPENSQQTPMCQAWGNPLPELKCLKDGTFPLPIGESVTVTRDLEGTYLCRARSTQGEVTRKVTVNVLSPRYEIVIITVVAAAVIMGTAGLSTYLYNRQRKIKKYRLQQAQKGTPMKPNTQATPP
# Sequence of Intercellular adhesion molecule (ICAM-1), Integrin alpha-L/beta-2 (P05107 whole entry): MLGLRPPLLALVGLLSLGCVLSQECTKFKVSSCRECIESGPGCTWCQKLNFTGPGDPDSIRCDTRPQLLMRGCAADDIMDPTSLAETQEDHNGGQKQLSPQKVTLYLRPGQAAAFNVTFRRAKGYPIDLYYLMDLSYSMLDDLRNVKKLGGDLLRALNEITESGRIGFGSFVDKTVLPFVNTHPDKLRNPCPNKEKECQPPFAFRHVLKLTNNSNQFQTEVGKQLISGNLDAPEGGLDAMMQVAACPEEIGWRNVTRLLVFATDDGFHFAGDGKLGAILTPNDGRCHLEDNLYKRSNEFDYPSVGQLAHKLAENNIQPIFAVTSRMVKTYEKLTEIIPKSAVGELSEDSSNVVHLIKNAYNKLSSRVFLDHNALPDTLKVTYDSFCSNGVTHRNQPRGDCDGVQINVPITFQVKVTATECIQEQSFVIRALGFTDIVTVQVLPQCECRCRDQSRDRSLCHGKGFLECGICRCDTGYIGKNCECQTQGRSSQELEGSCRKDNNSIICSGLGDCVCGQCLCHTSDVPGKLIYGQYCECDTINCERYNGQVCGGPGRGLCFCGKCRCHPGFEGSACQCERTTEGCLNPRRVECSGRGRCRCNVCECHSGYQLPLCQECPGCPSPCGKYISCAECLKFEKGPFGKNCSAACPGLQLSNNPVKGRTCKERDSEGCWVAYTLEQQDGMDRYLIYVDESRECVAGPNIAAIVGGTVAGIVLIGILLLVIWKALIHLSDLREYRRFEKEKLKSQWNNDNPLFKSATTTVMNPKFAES
row,SMILES,IC50
1,CCN(CC)C(=O)C1CCCN(c2cc(-c3ccc(Sc4ccccc4C(C)C)c(C(F)(F)F)c3)ncn2)C1 (configuration not stated),620 nM
2,COc1ccccc1Sc1ccc(-c2ccnc(N3CC[C@@H](O)C3)c2)cc1C(F)(F)F,77 nM
3,CC(=O)N1CCN(c2cc(-c3ccc(Sc4ccc5c(c4)OCCO5)c(C(F)(F)F)c3)ccn2)CC1,131 nM and 60 nM
4,O=C(O)[C@@H]1C[C@@H](O)CN1c1cc(-c2ccc(Sc3ccc4c(c3)OCCO4)c(C(F)(F)F)c2)ccn1,192 nM
5,CC(C)c1ccccc1Sc1ccc(-c2cc(N3CCN(c4ccccn4)CC3)ncn2)cc1C(F)(F)F,1270 nM
6,CC(C)c1ccccc1Sc1ccc(-c2cc(N3CCCC(C(N)=O)C3)ncn2)cc1C(F)(F)F (configuration not stated),340 nM
7,CC(=O)N1CCN(c2cc(-c3ccc(Sc4ccccc4C(C)C)c(C(F)(F)F)c3)ncn2)CC1,60 nM and 200 nM
8,CC(C)c1ccccc1Sc1ccc(-c2ccnc(N3CC[C@@H](O)[C@H](C(=O)O)C3)c2)cc1C(F)(F)F,43 nM
9,COc1ccccc1Sc1ccc(-c2ccnc(N3CCCC(C(=O)O)C3)c2)cc1C(F)(F)F (configuration not stated),122 nM
10,CC(C)c1ccccc1Sc1ccc(-c2ccnc(N3CCCC3)c2)cc1C(F)(F)F,250 nM
11,OC1CCN(c2cc(-c3ccc(Sc4ccc5c(c4)OCCO5)c(C(F)(F)F)c3)ccn2)CC1,300 nM
12,O=CN1CCN(c2cc(-c3ccc(Sc4ccc5c(c4)OCCO5)c(C(F)(F)F)c3)ccn2)CC1,351 nM
13,CC(C)c1ccccc1Sc1ccc(-c2ccnc(N3CCCC(C(=O)O)C3)c2)cc1C(F)(F)F (stereo in doubt; 16k),43 nM
14,CC(C)c1ccccc1Sc1ccc(-c2ccnc(N3CCC(CO)CC3)c2)cc1C(F)(F)F,160 nM
15,COc1ccccc1Sc1ccc(-c2ccnc(N3CC[C@@H](NC(C)=O)C3)c2)cc1C(F)(F)F,88 nM
16,CC(C)c1ccccc1Sc1ccc(-c2cc(N3CCC(O)CC3)ncn2)cc1C(F)(F)F,228 nM
17,CC(=O)N1CCN(C(=O)/C=C/c2ccc(Sc3ccccc3C(C)C)c(C(F)(F)F)c2)CC1,60 nM
18,CC(=O)NC1CCN(c2cc(-c3ccc(Sc4ccccc4C(C)C)c(C(F)(F)F)c3)ncn2)C1 (configuration not stated),220 nM
19,COc1ccccc1Sc1ccc(-c2ccnc(N3CCC[C@H]3C(=O)O)c2)cc1C(F)(F)F,80 nM
20,CC(C)c1ccccc1Sc1ccc(-c2cc(N3CCCC3CO)ncn2)cc1C(F)(F)F (stereo in doubt; 10w),680 nM
21,CC(C)c1ccccc1Sc1ccc(-c2cc(N3CCCC3CO)ncn2)cc1C(F)(F)F (stereo in doubt),480 nM

row,SMILES,IC50
1,CC(C)c1ccccc1Sc1ccc(-c2ccnc(N3CCC(CCO)CC3)c2)cc1C(F)(F)F,160 nM
2,COc1ccccc1Sc1ccc(-c2ccnc(N3CCN(C(C)=O)CC3)c2)cc1C(F)(F)F,121 nM
3,O[C@@H]1CCN(c2cc(-c3ccc(Sc4ccc5c(c4)OCCO5)c(C(F)(F)F)c3)ccn2)C1,126 nM
4,COc1ccccc1Sc1ccc(-c2ccnc(N3CCC(CO)CC3)c2)cc1C(F)(F)F,80 nM
5,OCC1CCN(c2cc(-c3ccc(Sc4ccc5c(c4)OCCO5)c(C(F)(F)F)c3)ccn2)CC1,390 nM
6,CC(C)c1ccccc1Sc1ccc(-c2cc(NCCCn3ccnc3)ncn2)cc1C(F)(F)F,760 nM
7,OC[C@H]1CCCN1c1cc(-c2ccc(Sc3ccc4c(c3)OCCO4)c(C(F)(F)F)c2)ccn1,510 nM
8,NC(=O)C1CCN(c2cc(-c3ccc(Sc4ccc5c(c4)OCCO5)c(C(F)(F)F)c3)ccn2)CC1,140 nM
9,CC(C)c1ccccc1Sc1ccc(-c2cc(N3CCCC(CO)C3)ncn2)cc1C(F)(F)F (configuration not stated),230 nM
10,CC(C)c1ccccc1Sc1ccc(-c2cc(N(C)C(C)C)ncn2)cc1C(F)(F)F,740 nM
11,CC(=O)N1CCCN(c2cc(-c3ccc(Sc4ccc5c(c4)OCCO5)c(C(F)(F)F)c3)ccn2)CC1,365 nM
12,CCOC(=O)CN1CCN(c2cc(-c3ccc(Sc4ccccc4C(C)C)c(C(F)(F)F)c3)ncn2)CC1,420 nM
13,OCCC1CCN(c2cc(-c3ccc(Sc4ccc5c(c4)OCCO5)c(C(F)(F)F)c3)ccn2)CC1,132 nM
14,CC(C)c1ccccc1Sc1ccc(-c2cc(N3CC[C@@H](O)C3)ncn2)cc1C(F)(F)F,158 nM
15,CCN(C)c1cc(-c2ccc(Sc3ccccc3C(C)C)c(C(F)(F)F)c2)ncn1,680 nM
16,CCCN1CCN(c2cc(-c3ccc(Sc4ccc5c(c4)OCCO5)c(C(F)(F)F)c3)ccn2)CC1,747 nM
17,CC(C)c1ccccc1Sc1ccc(-c2cc(N3CCC(C(N)=O)CC3)ncn2)cc1C(F)(F)F,230 nM
18,O=C(O)C1CCCN(c2cc(-c3ccc(Sc4ccc5c(c4)OCCO5)c(C(F)(F)F)c3)ccn2)C1 (stereo in doubt),30 nM
19,CCN(C(C)=O)C1CCN(c2cc(-c3ccc(Sc4ccccc4C(C)C)c(C(F)(F)F)c3)ncn2)C1 (configuration not stated),300 nM
20,CC(C)c1ccccc1Sc1ccc(-c2coc(N3CCOCC3)n2)cc1C(F)(F)F,3600 nM
21,COc1ccccc1Sc1ccc(-c2ccnc(N3CCN(C=O)CC3)c2)cc1C(F)(F)F,186 nM

row,SMILES,IC50
1,CC(C)c1ccccc1Sc1ccc(-c2cc(N3CCC(NC(=O)OC(C)(C)C)C3)ncn2)cc1C(F)(F)F (configuration not stated),550 nM
2,CC(C)c1ccccc1Sc1ccc(-c2ccnc(N3CCCC(C(=O)O)C3)c2)cc1C(F)(F)F (stereo in doubt),30 nM
3,CC(C)c1ccccc1Sc1ccc(-c2cc(N3CCOCC3)ncn2)cc1C(F)(F)F,80 nM and 320 nM
4,CCCN1CCN(c2cc(-c3ccc(Sc4ccccc4OC)c(C(F)(F)F)c3)ccn2)CC1,900 nM
5,CC(C)c1ccccc1Sc1ccc(-c2ccnc(N3CCC(C(N)=O)CC3)c2)cc1C(F)(F)F,73 nM
6,CC(C)c1ccccc1Sc1ccc(-c2cc(N3CCC(c4nn[nH]n4)CC3)ncn2)cc1C(F)(F)F,108 nM
7,CC(C)c1ccccc1Sc1ccc(-c2cc(N3CCC(CCO)CC3)ncn2)cc1C(F)(F)F,230 nM
8,CC(C)c1ccccc1Sc1ccc(-c2ccnc(N3CCC(c4nnn[nH]4)CC3)c2)cc1C(F)(F)F,51 nM
9,CC(C)c1ccccc1Sc1ccc(-c2ccnc(N3CCN(C=O)CC3)c2)cc1C(F)(F)F,165 nM
10,CCOC(=O)N1CCN(c2cc(-c3ccc(Sc4ccccc4C(C)C)c(C(F)(F)F)c3)ncn2)CC1,470 nM
11,O=C(O)C1CCN(c2cc(-c3ccc(Sc4ccc5c(c4)OCCO5)c(C(F)(F)F)c3)ccn2)CC1,71 nM and 50 nM
12,COc1ccccc1Sc1ccc(-c2ccnc(N3C[C@H](O)C[C@H]3C(=O)O)c2)cc1C(F)(F)F,214 nM
13,CC(C)c1ccccc1Sc1ccc(-c2ccnc(N3CCC[C@H]3C(=O)O)c2)cc1C(F)(F)F,26 nM
14,COc1ccccc1Sc1ccc(-c2ccnc(N3CCCN(C(C)=O)CC3)c2)cc1C(F)(F)F,168 nM
15,COc1ccccc1Sc1ccc(-c2ccnc(N3CCC(O)CC3)c2)cc1C(F)(F)F,128 nM
16,CC(=O)N[C@@H]1CCN(c2cc(-c3ccc(Sc4ccc5c(c4)OCCO5)c(C(F)(F)F)c3)ccn2)C1,112 nM
17,CC(C)c1ccccc1Sc1ccc(-c2ccnc(N3CCC[C@H]3CO)c2)cc1C(F)(F)F (stereo in doubt),480 nM
18,CC(C)c1ccccc1Sc1ccc(-c2cc(N3CCC(C(=O)O)CC3)ncn2)cc1C(F)(F)F,120 nM
19,COc1ccccc1Sc1ccc(-c2ccnc(N3CC[C@@H](N(C)C(C)=O)C3)c2)cc1C(F)(F)F,88 nM
20,CC1CN(c2cc(-c3ccc(Sc4ccccc4C(C)C)c(C(F)(F)F)c3)ncn2)CC(C)O1 (configuration not stated),490 nM
21,O=C(O)C1CCCN(c2cc(-c3ccc(Sc4ccc5c(c4)OCCO5)c(C(F)(F)F)c3)ccn2)C1 (stereo in doubt; 18L),76 nM

row,SMILES,IC50
1,CC(C)c1ccccc1Sc1ccc(-c2csc(NCCN3CCOCC3)n2)cc1C(F)(F)F,12000 nM
2,COc1ccccc1Sc1ccc(-c2ccnc(N3CCC(CCO)CC3)c2)cc1C(F)(F)F,111 nM
3,CC(C)c1ccccc1Sc1ccc(-c2ccnc(N3CCC(O)CC3)c2)cc1C(F)(F)F,76 nM
4,CC(=O)N1CCN(c2cc(-c3ccc(Sc4ccccc4C(C)C)c(C(F)(F)F)c3)ccn2)CC1,93 nM and 60 nM
5,CC(=O)N(C)[C@@H]1CCN(c2cc(-c3ccc(Sc4ccc5c(c4)OCCO5)c(C(F)(F)F)c3)ccn2)C1,168 nM
6,COCCCNc1nc(-c2ccc(Sc3ccccc3C(C)C)c(C(F)(F)F)c2)cs1,10500 nM
7,CC(=O)N(C)[C@@H]1CCN(c2cc(-c3ccc(Sc4ccccc4C(C)C)c(C(F)(F)F)c3)ccn2)C1,112 nM
8,CC(C)c1ccccc1Sc1ccc(-c2ccnc(N3CCCCC3)c2)cc1C(F)(F)F,1000 nM
9,CC(C)c1ccccc1Sc1ccc(-c2ccnc(N3CCC[C@H]3CO)c2)cc1C(F)(F)F (stereo in doubt; 16x),264 nM
10,COc1ccccc1Sc1ccc(-c2ccnc(N3CCC(C(=O)O)CC3)c2)cc1C(F)(F)F,113 nM
11,COc1ccccc1Sc1ccc(-c2ccnc(N3CCC[C@@H]3CO)c2)cc1C(F)(F)F,331 nM
12,COc1ccccc1Sc1ccc(-c2ccnc(N3CCC(C(N)=O)CC3)c2)cc1C(F)(F)F,140 nM
13,CC(C)c1ccccc1Sc1ccc(-c2ccnc(N3CCC(C(=O)O)CC3)c2)cc1C(F)(F)F,42 nM and 50 nM
14,O=C(O)[C@@H]1CCCN1c1cc(-c2ccc(Sc3ccc4c(c3)OCCO4)c(C(F)(F)F)c2)ccn1,147 nM
15,CC(=O)N[C@@H]1CCN(c2cc(-c3ccc(Sc4ccccc4C(C)C)c(C(F)(F)F)c3)ccn2)C1,62 nM
16,CC(C)c1ccccc1Sc1ccc(-c2ccnc(N3C[C@H](O)C[C@H]3C(=O)O)c2)cc1C(F)(F)F,90 nM
17,CC(C)c1ccccc1Sc1ccc(-c2ccnc(N3CCC(O)C3)c2)cc1C(F)(F)F (configuration not stated),93 nM
18,CC(C)c1ccccc1Sc1ccc(-c2coc(N3CCCCC3)n2)cc1C(F)(F)F,15000 nM

# Molecular target: Intercellular adhesion molecule (ICAM-1), Integrin alpha-L/beta-2 (Homo sapiens) (UniProt P20701+P05362+P05107)
# Assay: Inhibitory activity against ICAM-1/integrin LFA-1 binding complex at 1 uM concentration
# Assay type: protein-complex assay
row,SMILES,inhibition [%]
1,Cc1ccc(C)c(N2CCN(c3cc(-c4ccc(Sc5ccccc5C(C)C)c(C(F)(F)F)c4)ccn3)CC2)c1,0
2,CC(C)c1ccccc1Sc1ccc(-c2ccnc(N3CCN(c4ccccn4)CC3)c2)cc1C(F)(F)F,40
3,CC(C)c1ccccc1Sc1ccc(-c2ccnc(N3CCCCCC3)c2)cc1C(F)(F)F,34
4,CC(C)c1ccccc1Sc1ccc(-c2ccnc(N3CCN(C4CCCCC4)CC3)c2)cc1C(F)(F)F,21
5,CC(C)c1ccccc1Sc1ccc(-c2ccnc(N3CCN(c4cnccn4)CC3)c2)cc1C(F)(F)F,82
6,CC(C)c1ccccc1Sc1ccc(-c2ccnc(N3CCN(C)CC3)c2)cc1C(F)(F)F,58
